Structures can show the parent of a compound that is named as a salt.
Experiments:
DU4475 cells = assay: Cell-based assay: anti-proliferative activity, Cell Counting Kit-8, 72 hours (DU4475); details: Homo sapiens, DU-4475, 72 h
T47D cells = assay: Cell-based assay: anti-proliferative activity, Cell Counting Kit-8, 72 hours (T47D); details: Homo sapiens, T47D, 72 h
Method in brief: (§1)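 Target-specific cytotoxicity: seeded cells treated with MELK inhibitor candidates for 72 h, proliferation quantified via CCK-8, IC50 fitted.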

MELK = MELK (Homo sapiens, UniProt Q14680); assay: Kinase assay: MELK activity, phosphorylation of FITC-labeled histone H3 peptide measured by IMAP fluorescence polarization; assay type: biochemical; details: read-out: IC50 (μM) (kinase assay)
MELK, sequence (Q14680 whole entry, looked up): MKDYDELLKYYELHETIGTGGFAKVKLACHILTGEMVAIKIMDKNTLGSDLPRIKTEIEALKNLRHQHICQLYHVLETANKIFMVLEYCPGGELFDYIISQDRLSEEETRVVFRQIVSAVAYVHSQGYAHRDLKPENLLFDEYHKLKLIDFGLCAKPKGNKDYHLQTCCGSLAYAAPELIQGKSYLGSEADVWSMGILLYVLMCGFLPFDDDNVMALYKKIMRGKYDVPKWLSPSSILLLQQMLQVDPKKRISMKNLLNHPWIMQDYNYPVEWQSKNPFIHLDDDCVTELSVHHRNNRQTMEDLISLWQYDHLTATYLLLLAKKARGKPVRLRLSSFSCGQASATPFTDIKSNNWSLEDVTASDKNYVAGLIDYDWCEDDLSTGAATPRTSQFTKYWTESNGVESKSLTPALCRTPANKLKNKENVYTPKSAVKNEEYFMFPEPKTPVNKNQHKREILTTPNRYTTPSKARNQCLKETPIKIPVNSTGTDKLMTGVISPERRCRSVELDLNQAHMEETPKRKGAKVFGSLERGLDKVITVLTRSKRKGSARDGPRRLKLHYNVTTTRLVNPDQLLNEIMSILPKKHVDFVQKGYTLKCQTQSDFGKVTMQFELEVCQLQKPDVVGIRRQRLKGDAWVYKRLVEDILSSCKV
Method in brief: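 Polarization of fluorescence served as the signal for MELK turnover of FITC-conjugated histone H3 peptide. Binding solution quenched each reaction, and plates stood 0.5 hour at room temperature before reading.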

A549 cells = assay: Cell-based assay: anti-proliferative activity, Cell Counting Kit-8, 72 hours (A549); details: Homo sapiens, A549, 72 h, 72 hours
Method in brief: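 A549 cells were seeded in 96-well plates and exposed to candidate inhibitors for 72 hours. Cell growth was then measured with Cell Counting Kit-8, and IC50 values were calculated from the resulting growth data.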

HT-1197 cells = assay: Cell-based assay: anti-proliferative activity, Cell Counting Kit-8, 72 hours (HT-1197, negative control without MELK expression); details: Homo sapiens, HT1197, 72 h, HT1197 cells (negative control, no MELK expression), 72 hours
Method in brief: as §1

With CN(C)CC(O)c1ccc(Nc2c(C(=O)C3CC3)cnc3ccc(-c4cc(Cl)c(O)c(Cl)c4)cc23)cc1 (stereo not shown) [Example 709, Cyclopropyl{6-(3,5-dichloro-4-hydroxyphenyl)-4-[4-(2-(dimethylamino)-1-hydroxyethyl)phenylamino]quinolin-3-yl}methanone] the IC50 (DU4475 cells) was 0.077 µM, the IC50 (T47D cells) was 0.2 µM and the IC50 (MELK) was 0.0035 µM. It also gave an IC50 (A549 cells) of 0.14 µM and an IC50 (HT-1197 cells) of 3.8 µM.

In the case of COc1cc(-c2ccc3ncc(C(=O)C4CC4)c(Nc4ccc(CN5CCCC5)nc4)c3c2)cc(Cl)c1O [Example 659, (6-(3-chloro-4-hydroxy-5-methoxyphenyl)-4-(6-(pyrrolidin-1-ylmethyl)pyridin-3-ylamino)quinolin-3-yl)(cyclopropyl)methanone], the IC50 (DU4475 cells) is reported as 0.28 µM, the IC50 (T47D cells) is reported as 0.6 µM and the IC50 (MELK) is reported as 0.013 µM. The IC50 (A549 cells) was 0.32 µM and the IC50 (HT-1197 cells) was 7.3 µM.

CN[C@H]1CC[C@H](n2cc(Nc3c(C(=O)C4CC4)cnc4ccc(-c5cc(Cl)c(O)c(Cl)c5)cc34)cn2)CC1 [Example 705, Cyclopropyl{6-(3,5-dichloro-4-hydroxyphenyl)-4-[1-(trans-4-(methylamino)cyclohexyl)-1H-pyrazol-4-ylamino]quinolin-3-yl}methanone] showed an IC50 (DU4475 cells) of 0.072 µM, an IC50 (T47D cells) of 0.24 µM and an IC50 (MELK) of 0.0017 µM. The IC50 (A549 cells) was 1.7 µM and the IC50 (HT-1197 cells) was 10 µM.

Compound CN(C)C[C@]1(O)CC[C@@H](Nc2c(C(=O)C3CC3)cnc3ccc(-c4cc(Cl)c(O)c(Cl)c4)cc23)CC1 [Example 652, cyclopropyl(6-(3,5-dichloro-4-hydroxyphenyl)-4-((cis-4-((dimethylamino)methyl)-4-hydroxycyclohexyl)amino)quinolin-3-yl)methanone] has an IC50 (DU4475 cells) of 0.051 µM, an IC50 (T47D cells) of 0.15 µM and an IC50 (MELK) of 0.0011 µM. It also gave an IC50 (A549 cells) of 0.15 µM and an IC50 (HT-1197 cells) of 1.4 µM.

For CN(C)CC(O)c1ccc(Nc2c(C(=O)C3CC3)cnc3ccc(-c4cc(F)c(O)c(Cl)c4)cc23)cc1 (stereo not shown) [Example 707, {6-(3-Chloro-5-fluoro-4-hydroxyphenyl)-4-[4-(2-(dimethylamino)-1-hydroxyethyl)phenylamino]quinolin-3-yl}(cyclopropyl)methanone], the IC50 (DU4475 cells) was 0.081 µM, the IC50 (T47D cells) was 0.21 µM and the IC50 (MELK) was 0.0059 µM. For the same compound, the IC50 (A549 cells) was 0.13 µM and the IC50 (HT-1197 cells) was 3.4 µM.

Compound O=C(c1cnc2ccc(-c3cc(F)c(O)c(Cl)c3)cc2c1Nc1ccc(N2CCC(O)C2)nc1)C1CC1 (stereo not shown) [Example 671, (6-(3-chloro-5-fluoro-4-hydroxyphenyl)-4-(6-(3-hydroxypyrrolidin-1-yl)pyridin-3-ylamino)quinolin-3-yl)(cyclopropyl)methanone] has an IC50 (DU4475 cells) of 0.52 µM, an IC50 (T47D cells) of 0.3 µM and an IC50 (MELK) of 0.025 µM. The IC50 (A549 cells) was 0.85 µM and the IC50 (HT-1197 cells) was 4.9 µM.

COc1cc(-c2ccc3ncc(C(=O)C4CC4)c(Nc4ccc(N5CCC[C@H](N)C5)nc4)c3c2)cc(Cl)c1O [Example 660, (S)-(4-(6-(3-aminopiperidin-1-yl)pyridin-3-ylamino)-6-(3-chloro-4-hydroxy-5-methoxyphenyl)quinolin-3-yl)(cyclopropyl)methanone] was tested, and the IC50 (DU4475 cells) was 0.046 µM, the IC50 (T47D cells) was 0.1 µM and the IC50 (MELK) was 0.0024 µM. For the same compound, the IC50 (A549 cells) was 0.22 µM and the IC50 (HT-1197 cells) was 2.9 µM.

With CN(C)CCOc1ccc(Nc2c(C(=O)C3CC3)cnc3ccc(-c4cc(Cl)c(O)c(Cl)c4)cc23)cn1 [Example 711, Cyclopropyl(6-(3,5-dichloro-4-hydroxyphenyl)-4-(6-(2-(dimethylamino)ethoxy)pyridin-3-ylamino)quinolin-3-yl)methanone] the IC50 (DU4475 cells) was 0.073 µM, the IC50 (T47D cells) was 0.22 µM and the IC50 (MELK) was 0.0032 µM. For the same compound, the IC50 (A549 cells) was 0.11 µM and the IC50 (HT-1197 cells) was 5.7 µM.

CCC(=O)c1cnc2ccc(-c3cc(Cl)c(O)c(Cl)c3)cc2c1N[C@H]1CC[C@H](CN(C)C)CC1 [Example 715, 1-(6-(3,5-dichloro-4-hydroxyphenyl)-4-((trans-4-((dimethylamino)methyl)cyclohexyl)amino)quinolin-3-yl)propan-1-one] was tested, and the IC50 (DU4475 cells) was 0.046 µM, the IC50 (T47D cells) was 0.087 µM and the IC50 (MELK) was 0.0015 µM. For the same compound, the IC50 (A549 cells) was 0.11 µM and the IC50 (HT-1197 cells) was 0.84 µM.

Compound COc1cc(-c2ccc3ncc(C(C)=O)c(Nc4ccc(CCN(C)C)cc4)c3c2)cc(Cl)c1O [Example 743, 1-(6-(3-chloro-4-hydroxy-5-methoxyphenyl)-4-(4-(2-(dimethylamino)ethyl)phenylamino)quinolin-3-yl)ethanone] has an IC50 (DU4475 cells) of 0.36 µM, an IC50 (T47D cells) of 0.66 µM and an IC50 (MELK) of 0.0042 µM. The IC50 (A549 cells) was 0.53 µM and the IC50 (HT-1197 cells) was 4.8 µM.

O=C(c1cnc2ccc(-c3cc(Cl)c(O)c(Cl)c3)cc2c1N[C@H]1CC[C@H](CNCCF)CC1)C1CC1 [Example 700] showed an IC50 (DU4475 cells) of 0.25 µM, an IC50 (T47D cells) of 0.47 µM and an IC50 (MELK) of 0.0015 µM. It also gave an IC50 (A549 cells) of 0.47 µM and an IC50 (HT-1197 cells) of 2.2 µM.

O=C(c1cnc2ccc(-c3cc(Cl)c(O)c(Cl)c3)cc2c1Nc1ccc(CN2CCCC2)nc1)C1CC1 [Example 658, Cyclopropyl{6-(3,5-dichloro-4-hydroxyphenyl)-4-[6-(pyrrolidin-1-ylmethyl)pyridin-3-ylamino]quinolin-3-yl}methanone] was tested, and the IC50 (DU4475 cells) was 0.07 µM, the IC50 (T47D cells) was 0.3 µM and the IC50 (MELK) was 0.0078 µM. The IC50 (A549 cells) was 0.072 µM and the IC50 (HT-1197 cells) was 4.5 µM.

In the case of COc1cc(-c2ccc3ncc(C(C)=O)c(Nc4ccc(N5CCNCC5)nc4)c3c2)cc(Cl)c1O [Example 704, 1-(6-(3-chloro-4-hydroxy-5-methoxyphenyl)-4-(6-(piperazin-1-yl)pyridin-3-ylamino)quinolin-3-yl)ethanone hydrochloride], the IC50 (DU4475 cells) is reported as 0.12 µM, the IC50 (T47D cells) is reported as 0.17 µM and the IC50 (MELK) is reported as 0.0023 µM. The IC50 (A549 cells) was 0.2 µM and the IC50 (HT-1197 cells) was 2.1 µM.

With O=C(c1cnc2ccc(-c3cc(F)c(O)c(Cl)c3)cc2c1N[C@H]1CC[C@H](CNCCF)CC1)C1CC1 [Example 701] the IC50 (DU4475 cells) was 0.38 µM, the IC50 (T47D cells) was 0.29 µM and the IC50 (MELK) was 0.003 µM. For the same compound, the IC50 (A549 cells) was 0.41 µM and the IC50 (HT-1197 cells) was 0.98 µM.

COc1cc(-c2ccc3ncc(C(C)=O)c(Nc4cccc(CCN(C)C)c4)c3c2)cc(Cl)c1O [Example 730, 1-(6-(3-chloro-4-hydroxy-5-methoxyphenyl)-4-(3-(2-(dimethylamino)ethyl)phenylamino)quinolin-3-yl)ethanone] was tested, and the IC50 (DU4475 cells) was 0.69 µM, the IC50 (T47D cells) was 2.1 µM and the IC50 (MELK) was 0.0026 µM. It also gave an IC50 (A549 cells) of 0.82 µM and an IC50 (HT-1197 cells) of 8 µM.

COc1cc(-c2ccc3ncc(C(=O)C4CC4)c(NC4CCNCC4)c3c2)cc(Cl)c1O [Example 727, (6-(3-chloro-4-hydroxy-5-methoxyphenyl)-4-(piperidin-4-ylamino)quinolin-3-yl)(cyclopropyl)methanone] was tested, and the IC50 (DU4475 cells) was 0.14 µM, the IC50 (T47D cells) was 0.37 µM and the IC50 (MELK) was 0.0034 µM. It also gave an IC50 (A549 cells) of 0.19 µM and an IC50 (HT-1197 cells) of 1.1 µM.

For CN(C)Cc1ccc(Nc2c(C(=O)C3CC3)cnc3ccc(-c4cc(Cl)c(O)c(Cl)c4)cc23)cn1 [Example 657, Cyclopropyl{6-(3,5-dichloro-4-hydroxyphenyl)-4-[6-((dimethylamino)methyl)pyridin-3-ylamino]quinolin-3-yl}methanone], the IC50 (DU4475 cells) was 0.098 µM, the IC50 (T47D cells) was 0.31 µM and the IC50 (MELK) was 0.0089 µM. For the same compound, the IC50 (A549 cells) was 0.18 µM and the IC50 (HT-1197 cells) was 2.8 µM.

For CC(=O)c1cnc2ccc(-c3cc(Cl)c(O)c(Cl)c3)cc2c1Nc1ccc(N2CCCC(N)C2)nc1 (stereo not shown) [Example 681, 1-(4-(6-(3-aminopiperidin-1-yl)pyridin-3-ylamino)-6-(3,5-dichloro-4-hydroxyphenyl)quinolin-3-yl)ethanone], the IC50 (DU4475 cells) was 0.0085 µM, the IC50 (T47D cells) was 0.0046 µM and the IC50 (MELK) was 0.00086 µM. It also gave an IC50 (A549 cells) of 0.017 µM and an IC50 (HT-1197 cells) of 0.25 µM.

CN1CCCC(n2cc(Nc3c(C(=O)C4CC4)cnc4ccc(-c5cc(F)c(O)c(Cl)c5)cc34)cn2)C1 (stereo not shown) [Example 699, {6-(3-Chloro-5-fluoro-4-hydroxyphenyl)-4-[1-(1-methylpiperidin-3-yl)-1H-pyrazol-4-ylamino]quinolin-3-yl}(cyclopropyl)methanone] showed an IC50 (DU4475 cells) of 0.072 µM, an IC50 (T47D cells) of 0.24 µM and an IC50 (MELK) of 0.0026 µM. It also gave an IC50 (A549 cells) of 0.18 µM and an IC50 (HT-1197 cells) of 2.7 µM.

CC(=O)c1cnc2ccc(-c3cc(Cl)c(O)c(Cl)c3)cc2c1Nc1ccc(CCN(C)C)cc1 [Example 744, 1-(6-(3,5-dichloro-4-hydroxyphenyl)-4-(4-(2-(dimethylamino)ethyl)phenylamino)quinolin-3-yl)ethanone] was tested, and the IC50 (DU4475 cells) was 0.031 µM, the IC50 (T47D cells) was 0.11 µM and the IC50 (MELK) was 0.0017 µM. It also gave an IC50 (A549 cells) of 0.082 µM and an IC50 (HT-1197 cells) of 0.43 µM.

Work on NC1CCN(c2cc(Nc3c(C(=O)C4CC4)cnc4ccc(-c5cc(Cl)c(O)c(Cl)c5)cc34)ccn2)CC1 [Example 735, (4-(2-(4-aminopiperidin-1-yl)pyridin-4-ylamino)-6-(3,5-dichloro-4-hydroxyphenyl)quinolin-3-yl)(cyclopropyl)methanone] yielded an IC50 (DU4475 cells) of 0.5 µM, an IC50 (T47D cells) of 1 µM and an IC50 (MELK) of 0.0041 µM. The IC50 (A549 cells) was 3.5 µM and the IC50 (HT-1197 cells) was 20 µM.

Work on CN(C)C1CCN(Cc2ccc(Nc3c(C(=O)C4CC4)cnc4ccc(-c5cc(F)c(O)c(Cl)c5)cc34)cc2)C1 (stereo not shown) [Example 696, (6-(3-chloro-5-fluoro-4-hydroxyphenyl)-4-(4-((3-(dimethylamino)pyrrolidin-1-yl)methyl)phenylamino)quinolin-3-yl)(cyclopropyl)methanone] yielded an IC50 (DU4475 cells) of 0.17 µM, an IC50 (T47D cells) of 0.46 µM and an IC50 (MELK) of 0.012 µM. It also gave an IC50 (A549 cells) of 0.18 µM and an IC50 (HT-1197 cells) of 5.4 µM.

With COc1cc(-c2ccc3ncc(C(=O)C4CC4)c(Nc4ccc(N5CCC(N(C)C)C5)nc4)c3c2)cc(Cl)c1O (stereo not shown) [Example 689] the IC50 (DU4475 cells) was 3.2 µM, the IC50 (T47D cells) was 0.28 µM and the IC50 (MELK) was 0.013 µM. The IC50 (A549 cells) was 1.5 µM and the IC50 (HT-1197 cells) was 9.4 µM.
